Reference: patent US20150274719A1, “AMINO-SUBSTITUTED IMIDAZO[1,2-A]PYRIDINECARBOXAMIDES AND THEIR USE” (BAYER PHARMA AKTIENGESELLSCHAFT, priority 2012, published 2015)

Target: T1, recombinant guanylate cyclase reporter cell line (Rattus norvegicus, UniProt P19686+P20595)
T1 construct: expressed in transfected cells; host or cells: recombinant reporter cell line
T1 sequence (P19686 1-690): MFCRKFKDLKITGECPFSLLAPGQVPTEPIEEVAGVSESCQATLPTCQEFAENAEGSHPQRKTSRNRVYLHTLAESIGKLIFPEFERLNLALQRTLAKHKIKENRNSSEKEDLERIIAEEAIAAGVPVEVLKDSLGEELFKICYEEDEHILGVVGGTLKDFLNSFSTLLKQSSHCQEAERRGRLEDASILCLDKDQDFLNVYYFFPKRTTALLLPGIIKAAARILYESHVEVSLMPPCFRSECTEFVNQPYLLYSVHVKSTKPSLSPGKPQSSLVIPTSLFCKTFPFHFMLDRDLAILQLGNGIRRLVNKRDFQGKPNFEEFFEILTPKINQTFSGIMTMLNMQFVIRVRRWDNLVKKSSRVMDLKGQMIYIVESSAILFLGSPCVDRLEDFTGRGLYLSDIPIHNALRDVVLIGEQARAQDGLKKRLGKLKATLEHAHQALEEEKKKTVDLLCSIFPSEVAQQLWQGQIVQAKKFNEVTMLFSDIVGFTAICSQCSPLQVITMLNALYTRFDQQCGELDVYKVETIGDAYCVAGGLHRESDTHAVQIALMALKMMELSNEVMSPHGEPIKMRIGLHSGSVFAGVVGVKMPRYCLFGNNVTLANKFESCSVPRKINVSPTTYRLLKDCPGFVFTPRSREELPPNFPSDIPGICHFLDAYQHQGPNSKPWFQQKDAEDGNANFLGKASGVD
T1 sequence (P20595 1-619): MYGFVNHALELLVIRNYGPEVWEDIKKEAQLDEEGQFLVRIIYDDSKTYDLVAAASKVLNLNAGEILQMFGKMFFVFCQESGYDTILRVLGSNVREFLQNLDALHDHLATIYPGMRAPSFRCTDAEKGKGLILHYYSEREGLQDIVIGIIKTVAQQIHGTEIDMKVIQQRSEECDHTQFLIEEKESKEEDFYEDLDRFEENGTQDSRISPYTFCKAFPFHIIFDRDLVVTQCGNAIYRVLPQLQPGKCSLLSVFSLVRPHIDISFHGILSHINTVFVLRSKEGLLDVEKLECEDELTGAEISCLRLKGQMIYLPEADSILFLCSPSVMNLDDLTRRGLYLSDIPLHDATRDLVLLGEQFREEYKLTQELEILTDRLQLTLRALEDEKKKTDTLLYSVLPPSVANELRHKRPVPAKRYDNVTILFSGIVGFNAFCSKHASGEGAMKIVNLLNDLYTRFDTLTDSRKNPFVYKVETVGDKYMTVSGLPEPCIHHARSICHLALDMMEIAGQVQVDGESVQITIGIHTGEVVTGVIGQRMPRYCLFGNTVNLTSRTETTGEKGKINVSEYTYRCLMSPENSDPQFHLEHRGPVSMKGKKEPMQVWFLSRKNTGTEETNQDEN
Assay: Action on recombinant guanylate cyclase reporter cell line
Type: cell-based
Conditions: in some cases mean values from individual determinations
How it was run: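 Cellular activity was measured in a reporter cell line expressing recombinant guanylate cyclase. Values are given as MEC, the minimal effective concentration, and some are means of individual determinations.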

Structure (SMILES) | MEC (minimal effective concentration)
Cc1cc(OCc2c(F)cccc2F)c2nc(C)c(C(=O)NCCC(C)(C)N)n2c1 [Example 114, N-(3-amino-3-methylbutyl)-8-[(2,6-difluorobenzyl)oxy]-2,6-dimethylimidazo[1,2-a]-pyridine-3-carboxamide] | 0.30 µM
Cc1cc(OCc2c(F)cccc2F)c2nc(C)c(C(=O)NC[C@H]3CCCN3)n2c1 [Example 116, 8-[(2,6-difluorobenzyl)oxy]-2,6-dimethyl-N-[(2R)-pyrrolidin-2-ylmethyl]imidazo[1,2-a]-pyridine-3-carboxamide] | 3.00 µM
Cc1nc2c(OCc3c(F)cccc3F)cccn2c1C(=O)NC(C)[C@@H](C)N (stereo partly drawn) [Example 121, N-[(3R)-3-Aminobutan-2-yl]-8-[(2,6-difluorobenzyl)oxy]-2-methylimidazo[1,2-a]pyridine-3-carboxamide] | 0.30 µM
Cc1nc2c(OCc3c(F)cccc3F)cccn2c1C(=O)NCCNC(C)C [Example 130, 8-[(2,6-difluorobenzyl)oxy]-N-[2-(isopropylamino)ethyl]-2-methylimidazo[1,2-a]-pyridine-3-carboxamide] | 1.00 µM
Cc1nc2c(OCc3c(F)cccc3F)cccn2c1C(=O)NCCN1CCS(=O)(=O)CC1 [Example 131, 8-[(2,6-difluorobenzyl)oxy]-N-[2-(1,1-dioxidothiomorpholin-4-yl)ethyl]-2-methylimidazo[1,2-a]pyridine-3-carboxamide] | 3.00 µM
Cc1nc2c(OCc3c(F)cccc3F)cccn2c1C(=O)NCCN1CCN(C)CC1 [Example 133, 8-[(2,6-difluorobenzyl)oxy]-2-methyl-N-[2-(4-methylpiperazin-1-yl)ethyl]imidazo[1,2-a]-pyridine-3-carboxamide] | 3.00 µM
Cc1cc(OCc2c(F)cccc2F)c2nc(C)c(C(=O)NCCN3CCOCC3)n2c1 [Example 136, 8-[(2,6-difluorobenzyl)oxy]-2,6-dimethyl-N-[2-(morpholin-4-yl)ethyl]imidazo[1,2-a]pyridine-3-carboxamide] | 0.10 µM
Cc1cc(OCc2c(F)cccc2F)c2nc(C)c(C(=O)NCCN3CCN(C)CC3)n2c1 [Example 137, 8-[(2,6-difluorobenzyl)oxy]-2,6-dimethyl-N-[2-(4-methylpiperazin-1-yl)ethyl]imidazo[1,2-a]-pyridine-3-carboxamide] | 1.00 µM
Cc1nc2c(OCc3c(F)cccc3F)cc(F)cn2c1C(=O)NCC(C)(C)N [Example 140, N-(2-Amino-2-methylpropyl)-8-[(2,6-difluorobenzyl)oxy]-6-fluoro-2-methylimidazo[1,2-a]-pyridine-3-carboxamide] | 1.00 µM
Cc1nc2c(OCc3c(F)cccc3F)cccn2c1C(=O)NCC(C)(C)N(C)C [Example 145, 8-[(2,6-difluorobenzyl)oxy]-N-[2-(dimethylamino)-2-methylpropyl]-2-methylimidazo[1,2-a]pyridine-3-carboxamide] | 3.00 µM
Cc1nc2c(OCc3c(F)cccc3F)cc(Cl)cn2c1C(=O)NCC(C)(C)N1CCCC1 [Example 148, 6-chloro-8-[(2,6-difluorobenzyl)oxy]-2-methyl-N-[2-methyl-2-(pyrrolidin-1-yl)-propyl]imidazo[1,2-a]pyridine-3-carboxamide] | 1.00 µM
Cc1nc2c(OCc3c(F)cccc3F)cc(Cl)cn2c1C(=O)NCCN(CC(F)F)C1CC1 [Example 150, 6-chloro-N-{2-[cyclopropyl(2,2-difluoroethyl)-amino]ethyl}-8-[(2,6-difluorobenzyl)oxy]-2-methylimidazo[1,2-a]pyridine-3-carboxamide] | 0.10 µM

The remaining lines, values ahead:

MEC (minimal effective concentration) | Structure (SMILES)
1.00 µM | Cc1cc(OCc2c(F)cccc2F)c2nc(C)c(C(=O)NC[C@@H]3CCCN3)n2c1 [Example 115, 8-[(2,6-difluorobenzyl)oxy]-2,6-dimethyl-N-[(2S)-pyrrolidin-2-ylmethyl]imidazo[1,2-a]-pyridine-3-carboxamide]
1.00 µM | Cc1nc2c(OCc3c(F)cccc3F)cccn2c1C(=O)NCCC(C)(C)N [Example 117, N-(3-amino-3-methylbutyl)-8-[(2,6-difluorobenzyl)oxy]-2-methylimidazo[1,2-a]-pyridine-3-carboxamide]
0.30 µM | Cc1nc2c(OCc3c(F)cccc3F)cccn2c1C(=O)NC(C)[C@H](C)N (stereo partly drawn) [Example 120, N-[(3S)-3-Aminobutan-2-yl]-8-[(2,6-difluorobenzyl)oxy]-2-methylimidazo[1,2-a]pyridine-3-carboxamide]
1.00 µM | Cc1nc2c(OCc3c(F)cccc3F)cccn2c1C(=O)NC(CN)COc1ccc(F)c(F)c1 (stereo not drawn) [Example 124, ent-N-[1-Amino-3-(3,4-difluorophenoxyl)propan-2-yl]-8-[(2,6-difluorobenzyl)oxy]-2-methyl-imidazo[1,2-a]pyridine-3-carboxamide ditrifluoroacetate]
1.00 µM | Cc1cc(OCc2c(F)cccc2F)c2nc(C)c(C(=O)NCCN3CCN(C(C)C)CC3)n2c1 [Example 139, 8-[(2,6-difluorobenzyl)oxy]-N-[2-(4-isopropylpiperazin-1-yl)ethyl]-2,6-dimethylimidazo[1,2-a]pyridine-3-carboxamide]
3.00 µM | Cc1nc2c(OCc3c(F)cccc3F)cccn2c1C(=O)NC(C)(C)C(C)(C)N [Example 141, N-(3-Amino-2,3-dimethylbutan-2-yl)-8-[(2,6-difluorobenzyl)oxy]-2-methylimidazo[1,2-a]pyridine-3-carboxamide]
0.30 µM | Cc1nc2c(OCc3c(F)cccc3F)cccn2c1C(=O)NCCN1CCC(F)(F)C1 [Example 143, 8-[(2,6-difluorobenzyl)oxy]-N-[2-(3,3-difluoropyrrolidin-1-yl)ethyl]-2-methylimidazo[1,2-a]pyridine-3-carboxamide]
3.00 µM | COCCNCCNC(=O)c1c(C)nc2c(OCc3c(F)cccc3F)cccn12 [Example 144, 8-[(2,6-difluorobenzyl)oxy]-N-{2-[(2-methoxyethyl)amino]ethyl}-2-methylimidazo[1,2-a]pyridine-3-carboxamide]
1.00 µM | Cc1nc2c(OCc3c(F)cccc3F)cccn2c1C(=O)NCCN(CC(F)F)C1CC1 [Example 146, N-{2-[cyclopropyl(2,2-difluoroethyl)amino]ethyl}-8-[(2,6-difluorobenzyl)oxy]-2-methylimidazo[1,2-a]-pyridine-3-carboxamide]
1.00 µM | Cc1nc2c(OCc3c(F)cccc3F)cc(Cl)cn2c1C(=O)NCCNC(C)C [Example 149, 6-chloro-8-[(2,6-difluorobenzyl)oxy]-N-[2-(isopropylamino)ethyl]-2-methylimidazo[1,2-a]-pyridine-3-carboxamide]
0.10 µM | Cc1nc2c(OCc3c(F)cccc3F)cc(Cl)cn2c1C(=O)NCCN1CCC(F)(F)CC1 [Example 151, 6-chloro-8-[(2,6-difluorobenzyl)oxy]-N-[2-(4,4-difluoropiperidin-1-yl)ethyl]-2-methylimidazo[1,2-a]pyridine-3-carboxamide]
1.00 µM | Cc1nc2c(OCc3c(F)cccc3F)cc(Cl)cn2c1C(=O)NCCN1CCN(C(C)C)CC1 [Example 152, 6-chloro-8-[(2,6-difluorobenzyl)oxy]-N-[2-(4-isopropylpiperazin-1-yl)ethyl]-2-methyl-imidazo[1,2-a]pyridine-3-carboxamide]
1.00 µM | COCCNCCNC(=O)c1c(C)nc2c(OCc3c(F)cccc3F)cc(Cl)cn12 [Example 153, 6-chloro-8-[(2,6-difluorobenzyl)oxy]-N-{2-[(2-methoxyethyl)amino]ethyl}-2-methylimidazo[1,2-a]pyridine-3-carboxamide]
